# Measured values from patent US20260157986A1, “METHODS OF TREATMENT OF PRIMARY BILIARY CHOLANGITIS” (Ipsen Pharma, priority 2024, published 2026).
# Columns and labels:
# patients with PBC [1] = settings: in vivo; cited from earlier work
# [2] = test system: participants with PBC and baseline ALP >1×ULN and <1.67×ULN; assay: Phase IIIb randomised, double-blind, placebo-controlled, two-arm study (Example 1); assay type: in vivo, human; settings: 80 mg once daily versus placebo; baseline ALP more than 1×ULN and at most 1.67×ULN
# subjects with PBC = assay: Clinical study, not further specified (Summary); assay type: in vivo, human; settings: treatment of subjects with elafibranor
# [3] = test system: participants with PBC with inadequate response or intolerance to UDCA; assay: ELATIVE phase III double-blind, randomised, placebo-controlled study (GFT505B-319-1, NCT04526665); assay type: in vivo, human
# Procedure: This was assessed based on the primary endpoint, which combined reductions in ALP and total bilirubin (TB).
# patients with PBC [4] = settings: cited from earlier work
compound,measurement,setting,value
"C[C@H](CCC(=O)O)[C@H]1CC[C@H]2[C@@H]3[C@@H](O)C[C@@H]4C[C@H](O)CC[C@]4(C)[C@H]3CC[C@]12C [UDCA, Ursodeoxycholic acid]",proportion of PBC patients intolerant to UDCA,patients with PBC [1],up to 5%
CSc1ccc(C(=O)/C=C/c2cc(C)c(OC(C)(C)C(=O)O)c(C)c2)cc1 [elafibranor],prevention of clinical outcome events showing disease worsening (including progression leading to liver transplant or death),[2],better than placebo
same,biochemical markers in the plasma,subjects with PBC,relevant reduction of biochemical markers in the plasma
same,improvement in cholestasis (primary endpoint combining reductions in ALP and total bilirubin),"[3]; compared to placebo, double-blind period",greater improvement in cholestasis compared to placebo
same,safety and tolerability,[3]; patients with PBC,safe and well-tolerated
CC[C@H]1[C@@H](O)[C@@H]2[C@H](CC[C@]3(C)[C@@H]([C@H](C)CCC(=O)O)CC[C@@H]23)[C@@]2(C)CC[C@@H](O)C[C@@H]12 [obeticholic acid],liver failure,patients with PBC [4]; patients with advanced cirrhosis,reports of patients with advanced cirrhosis developing liver failure
same,pruritus,patients with PBC [4]; second line therapy,clinically significant pruritus has been reported in a significant portion of patients
